Reference: ChEMBL document CHEMBL3046672, “Synthesis and bioevaluation of Schiff and Mannich bases of isatin derivatives with 4-amino-5-benzyl-2,4-dihydro-3H-1,2,4-triazole-3-thione” (2012)

Tests used:
Type in all cases: functional
Settings in all cases: read-out: DIZ
[1] = test system: Aspergillus niger; assay: Antifungal activity against Aspergillus niger at 200 ug/ml
[2] = test system: Staphylococcus aureus; assay: Antibacterial activity against Staphylococcus aureus at 50 ug/ml
[3] = test system: Candida albicans; assay: Antifungal activity against Candida albicans at 100 ug/ml
[4] = test system: Escherichia coli; assay: Antibacterial activity against Escherichia coli at 200 ug/ml
[5] = test system: Bacillus subtilis; assay: Antibacterial activity against Bacillus subtilis at 50 ug/ml
[6] = test system: Staphylococcus aureus; assay: Antibacterial activity against Staphylococcus aureus at 100 ug/ml
[7] = test system: Pseudomonas aeruginosa; assay: Antibacterial activity against Pseudomonas aeruginosa at 100 ug/ml
[8] = test system: Aspergillus niger; assay: Antifungal activity against Aspergillus niger at 100 ug/ml
[9] = test system: Escherichia coli; assay: Antibacterial activity against Escherichia coli at 50 ug/ml
[10] = test system: Pseudomonas aeruginosa; assay: Antibacterial activity against Pseudomonas aeruginosa at 50 ug/ml
[11] = test system: Bacillus subtilis; assay: Antibacterial activity against Bacillus subtilis at 100 ug/ml
[12] = test system: Candida albicans; assay: Antifungal activity against Candida albicans at 200 ug/ml
[13] = test system: Bacillus subtilis; assay: Antibacterial activity against Bacillus subtilis at 200 ug/ml
[14] = test system: Pseudomonas aeruginosa; assay: Antibacterial activity against Pseudomonas aeruginosa at 200 ug/ml
[15] = test system: Escherichia coli; assay: Antibacterial activity against Escherichia coli at 100 ug/ml
[16] = test system: Staphylococcus aureus; assay: Antibacterial activity against Staphylococcus aureus at 200 ug/ml

## O=C1Nc2ccccc2/C1=N/n1c(Cc2ccccc2)n[nH]c1=S
[1]
  zone of inhibition at 200 µg/mL: 14 mm
[2]
  zone of inhibition at 50 µg/mL: 10 mm
[3]
  zone of inhibition at 100 µg/mL: 9 mm
[4]
  zone of inhibition at 200 µg/mL: 23 mm
[5]
  zone of inhibition at 50 µg/mL: 9 mm
[6]
  zone of inhibition at 100 µg/mL: 16 mm
[7]
  zone of inhibition at 100 µg/mL: 16 mm
[8]
  zone of inhibition at 100 µg/mL: 9 mm
[9]
  zone of inhibition at 50 µg/mL: 12 mm
[10]
  zone of inhibition at 50 µg/mL: 13 mm
[11]
  zone of inhibition at 100 µg/mL: 15 mm
[12]
  zone of inhibition at 200 µg/mL: 15 mm
[13]
  zone of inhibition at 200 µg/mL: 20 mm
[14]
  zone of inhibition at 200 µg/mL: 24 mm
[15]
  zone of inhibition at 100 µg/mL: 19 mm
[16]
  zone of inhibition at 200 µg/mL: 22 mm

## O=C1Nc2ccc(Cl)cc2/C1=N/n1c(Cc2ccccc2)n[nH]c1=S
[1]
  zone of inhibition at 200 µg/mL: 12 mm
[3]
  zone of inhibition at 100 µg/mL: 9 mm
[4]
  zone of inhibition at 200 µg/mL: 27 mm
[5]
  zone of inhibition at 50 µg/mL: 9 mm
[6]
  zone of inhibition at 100 µg/mL: 11 mm
[7]
  zone of inhibition at 100 µg/mL: 13 mm
[8]
  zone of inhibition at 100 µg/mL: 9 mm
[9]
  zone of inhibition at 50 µg/mL: 11 mm
[10]
  zone of inhibition at 50 µg/mL: 9 mm
[11]
  zone of inhibition at 100 µg/mL: 14 mm
[12]
  zone of inhibition at 200 µg/mL: 16 mm
[13]
  zone of inhibition at 200 µg/mL: 20 mm
[14]
  zone of inhibition at 200 µg/mL: 25 mm
[15]
  zone of inhibition at 100 µg/mL: 18 mm
[16]
  zone of inhibition at 200 µg/mL: 23 mm

## O=C1Nc2ccc(Br)cc2/C1=N/n1c(Cc2ccccc2)n[nH]c1=S
[1]
  zone of inhibition at 200 µg/mL: 14 mm
[2]
  zone of inhibition at 50 µg/mL: 9 mm
[3]
  zone of inhibition at 100 µg/mL: 11 mm
[4]
  zone of inhibition at 200 µg/mL: 27 mm
[5]
  zone of inhibition at 50 µg/mL: 9 mm
[6]
  zone of inhibition at 100 µg/mL: 12 mm
[7]
  zone of inhibition at 100 µg/mL: 15 mm
[8]
  zone of inhibition at 100 µg/mL: 10 mm
[9]
  zone of inhibition at 50 µg/mL: 11 mm
[10]
  zone of inhibition at 50 µg/mL: 10 mm
[11]
  zone of inhibition at 100 µg/mL: 15 mm
[12]
  zone of inhibition at 200 µg/mL: 17 mm
[13]
  zone of inhibition at 200 µg/mL: 20 mm
[14]
  zone of inhibition at 200 µg/mL: 25 mm
[15]
  zone of inhibition at 100 µg/mL: 17 mm
[16]
  zone of inhibition at 200 µg/mL: 20 mm

## CCN(CC)CN1C(=O)/C(=N\n2c(Cc3ccccc3)n[nH]c2=S)c2ccccc21
[1]
  zone of inhibition at 200 µg/mL: 13 mm
[2]
  zone of inhibition at 50 µg/mL: 11 mm
[3]
  zone of inhibition at 100 µg/mL: 10 mm
[4]
  zone of inhibition at 200 µg/mL: 22 mm
[5]
  zone of inhibition at 50 µg/mL: 9 mm
[6]
  zone of inhibition at 100 µg/mL: 16 mm
[7]
  zone of inhibition at 100 µg/mL: 13 mm
[8]
  zone of inhibition at 100 µg/mL: 9 mm
[9]
  zone of inhibition at 50 µg/mL: 9 mm
[10]
  zone of inhibition at 50 µg/mL: 9 mm
[11]
  zone of inhibition at 100 µg/mL: 13 mm
[12]
  zone of inhibition at 200 µg/mL: 17 mm
[13]
  zone of inhibition at 200 µg/mL: 20 mm
[14]
  zone of inhibition at 200 µg/mL: 20 mm
[15]
  zone of inhibition at 100 µg/mL: 15 mm
[16]
  zone of inhibition at 200 µg/mL: 23 mm

## CCN(CC)CN1C(=O)/C(=N\n2c(Cc3ccccc3)n[nH]c2=S)c2cc(Cl)ccc21
[1]
  zone of inhibition at 200 µg/mL: 12 mm
[2]
  zone of inhibition at 50 µg/mL: 9 mm
[3]
  zone of inhibition at 100 µg/mL: 9 mm
[4]
  zone of inhibition at 200 µg/mL: 27 mm
[5]
  zone of inhibition at 50 µg/mL: 9 mm
[6]
  zone of inhibition at 100 µg/mL: 12 mm
[7]
  zone of inhibition at 100 µg/mL: 16 mm
[8]
  zone of inhibition at 100 µg/mL: 9 mm
[9]
  zone of inhibition at 50 µg/mL: 11 mm
[10]
  zone of inhibition at 50 µg/mL: 9 mm
[11]
  zone of inhibition at 100 µg/mL: 14 mm
[12]
  zone of inhibition at 200 µg/mL: 15 mm
[13]
  zone of inhibition at 200 µg/mL: 20 mm
[14]
  zone of inhibition at 200 µg/mL: 22 mm
[15]
  zone of inhibition at 100 µg/mL: 17 mm
[16]
  zone of inhibition at 200 µg/mL: 21 mm

## CCN(CC)CN1C(=O)/C(=N\n2c(Cc3ccccc3)n[nH]c2=S)c2cc(Br)ccc21
[1]
  zone of inhibition at 200 µg/mL: 13 mm
[2]
  zone of inhibition at 50 µg/mL: 9 mm
[3]
  zone of inhibition at 100 µg/mL: 10 mm
[4]
  zone of inhibition at 200 µg/mL: 26 mm
[5]
  zone of inhibition at 50 µg/mL: 9 mm
[6]
  zone of inhibition at 100 µg/mL: 14 mm
[7]
  zone of inhibition at 100 µg/mL: 14 mm
[8]
  zone of inhibition at 100 µg/mL: 9 mm
[9]
  zone of inhibition at 50 µg/mL: 10 mm
[10]
  zone of inhibition at 50 µg/mL: 9 mm
[11]
  zone of inhibition at 100 µg/mL: 13 mm
[12]
  zone of inhibition at 200 µg/mL: 16 mm
[13]
  zone of inhibition at 200 µg/mL: 20 mm
[14]
  zone of inhibition at 200 µg/mL: 23 mm
[15]
  zone of inhibition at 100 µg/mL: 16 mm
[16]
  zone of inhibition at 200 µg/mL: 20 mm

## O=C1/C(=N\n2c(Cc3ccccc3)n[nH]c2=S)c2ccccc2N1CN1CCCCC1
[1]
  zone of inhibition at 200 µg/mL: 13 mm
[2]
  zone of inhibition at 50 µg/mL: 9 mm
[3]
  zone of inhibition at 100 µg/mL: 10 mm
[4]
  zone of inhibition at 200 µg/mL: 23 mm
[5]
  zone of inhibition at 50 µg/mL: 9 mm
[6]
  zone of inhibition at 100 µg/mL: 14 mm
[7]
  zone of inhibition at 100 µg/mL: 16 mm
[8]
  zone of inhibition at 100 µg/mL: 9 mm
[9]
  zone of inhibition at 50 µg/mL: 11 mm
[10]
  zone of inhibition at 50 µg/mL: 10 mm
[11]
  zone of inhibition at 100 µg/mL: 12 mm
[12]
  zone of inhibition at 200 µg/mL: 16 mm
[13]
  zone of inhibition at 200 µg/mL: 20 mm
[14]
  zone of inhibition at 200 µg/mL: 20 mm
[15]
  zone of inhibition at 100 µg/mL: 18 mm
[16]
  zone of inhibition at 200 µg/mL: 20 mm
